Laboratory results as given in US11814405B2, “Pyridine sulfonamide phosphate compound, preparation method therefor, and use thereof” (Shanghai Xunhe Pharmaceutical Technology Co. Ltd., priority 2019, dated 2023).
“Also recorded” adds a separate entry of the source.

Experiments:
Male SD rats = assay: Comparison of diuretic effects: urine output in saline-loaded rats; type: in vivo, rat; conditions: 10 mg/kg, ig, after 30 mL/kg normal saline, urine collected for 4 h
Protocol: Male SD rats (body weight: 180±20 g) were randomly divided into 14 groups with 3 rats in each group. Each rat was administrated 30 mL/kg normal saline through intragastric administration. After intragastric administration of normal saline, except the blank control group, each group was administrated one drug (10 mg/kg, ig, 1 mg/mL, formulation prescription: normal saline dissolution). Urination for 4 h was collected.

[1] = Comparison of water solubility; conditions: for Phenomenon: at the API:water ratio given
[2] = cited from earlier work
[3] = active metabolite in vivo, compared with torsemide (Drugs 41 (1): 81-103, 1991); cited from earlier work

Cc1cc(Nc2ccncc2S(=O)(=O)NC(=O)NC(C)C)ccc1O [Compound M3]
Urine output (Male SD rats): 107.2 mL/kg
Phenomenon [1]: Completely dissolved
Conclusion (water solubility) [1]: Slightly soluble
solubility in water [2]: has not been effectively improved
pharmacological activity [3]: comparable to torsemide

Cc1cccc(Nc2ccncc2S(=O)(=O)NC(=O)NC(C)C)c1 [Torsemide, 1-[4-(3-methylphenyl)aminopyridin-3-yl]sulfonyl-3-isopropylurea]
Urine output (Male SD rats): 105.3 mL/kg
Phenomenon [1]: Completely dissolved
Conclusion (water solubility) [1]: Very slightly
solubility in 0.1 mol/L sodium hydroxide solution ([2]; 0.1 mol/L sodium hydroxide solution): slightly soluble
solubility in water [2]: almost insoluble in water; also recorded: very slightly soluble in water
